How the values were obtained:
Mast cell [1] = assay: Inhibition of concanavalin A-induced histamine release in rat peritoneal mast cells; assay type: functional, cell-based
Mast cell [2] = assay: Inhibition of anti-IgE-induced histamine release in porcine lung mast cells at 20 uM; assay type: functional; conditions: Sus scrofa
Mast cell [3] = assay: Inhibition of A23187-induced histamine release in porcine peritoneal mast cells at 20 uM; assay type: functional; conditions: Sus scrofa
Mus musculus [4] = assay: Inhibition of IgE-induced PCA reaction in albino Swiss mouse at 3 mg/kg administered intradermally; assay type: functional; set-up: Activity: scale not given: the % may be the effect or the level left; conditions: for inhibition in vivo at 3 mg/kg: Mus musculus, albino Swiss
Mast cell [5] = assay: Inhibition of vancomycin-induced histamine release in rat peritoneal mast cells; assay type: functional, cell-based
Mast cell [6] = assay: Inhibition of A23187-induced histamine release in rat peritoneal mast cells; assay type: functional, cell-based
Mast cell [7] = assay: Inhibition of compound 48/80-induced histamine release in rat peritoneal mast cells; assay type: functional, cell-based
Mus musculus [8] = assay: Inhibition of IgE-induced PCA reaction in intradermally dosed albino Swiss mouse; assay type: functional, organism-based

IC50 (Mast cell [1]) | IC50 (Mast cell [5]) | IC50 (Mast cell [6]) | IC50 (Mast cell [7]) | Compound | inhibition at 20 µM (Mast cell [2]) | inhibition at 20 µM (Mast cell [3]) | inhibition in vivo at 3 mg/kg (Mus musculus [4]) | inhibition (Mus musculus [8]) | Activity (Mus musculus [4])
1.6 µM | 12.6 µM | 6.97 µM | 2.18 µM | CN([C@H]1CCc2ccccc2C1)[C@@H]1CC(=O)c2ccccc21 | 81% | 48% | 68% | – | –
16.9 µM | 4.47 µM | 4.08 µM | 1.51 µM | CN([C@@H]1CCc2ccccc2C1)[C@H]1CC(=O)c2ccccc21 | 53% | 31% | 111% | Dose-dependent effect | –
– | – | – | – | CN(C1CCc2ccccc2C1)C1CC(=O)c2ccccc21 (centres undefined) | – | – | 83% | – | –
1.6 µM | – | 8.06 µM | 1.49 µM | CN([C@H]1CCc2ccccc2C1)[C@H]1CC(=O)c2ccccc21 | 86% | 40% | 73% | – | –
13.1 µM | – | 9.48 µM | 3.03 µM | CN([C@@H]1CCc2ccccc2C1)[C@@H]1CC(=O)c2ccccc21 | 89% | 22% | 77% | – | –
– | – | – | – | O=C([O-])c1cc(=O)c2c(OCC(O)COc3cccc4oc(C(=O)[O-])cc(=O)c34)cccc2o1.[Na+].[Na+] [CROMOLYN SODIUM] | – | – | – | – | 73%

Reference: ChEMBL document CHEMBL1667851, “Synthesis and pharmacological evaluation of the individual stereoisomers of 3-[methyl(1,2,3,4-tetrahydro-2-naphthalenyl)amino]-1-indanone, a potent mast cell stabilising agent” (Bioorg Med Chem Lett, 2011)
